The record followed here is US10315994B2, “Photostable compounds, absorbing compounds and uses thereof” (Commonwealth Scientific and Industrial Research Organisation, priority 2015, dated 2019).

Entries after “also recorded” stand apart in the source; their conditions may differ.

Data set [1] is described as follows: Photostability of thin films exposed to xenon arc lamp. In kind it is physicochemical. The following applies: for % λmax (% of original absorbance remaining): absorbance at λmax, irradiated vs unirradiated; for % λmax (% of original absorbance remaining) / % abs total (% of original absorbance remaining): xenon arc lamp 1 hour, thin film; for Photostability, % remaining after irradiation: exposure to the lamp for 1 h; for % abs total (% of original absorbance remaining): sum of absorbance 290-400 nm. The method, then:
1 mL of a 3% solution of the test compound (30 mg of test compound in 1 mL solvent) was prepared in a solvent mix made up of 50% EtOH and 25% capric/caprylic triglyceride and 25% C12-C15 alkyl benzoate. 50 μL of this solution (containing 1.5 mg of test compound) was added carefully to the centre of a glass microscope slide and the volatile components left to evaporate in the dark for at least 3 hours to give a liquid film. […] The irradiation was performed in a fume cupboard where the air flow was sufficient to keep sample T<30° C. One hour's exposure represented a calculated radiation dose (using meter) of approximately 100 MED.
In order to calculate the photostability of the test compounds, the exposed slides were placed in a beaker and rinsed with 2×5 mL EtOH, 1×5 mL MeOH. The combined washings were then added to a 100 mL volumetric flask and made up to 100 mL total volume with methanol. The UV absorbance was then measured in a 10 mm cuvette. The percent stability is measured as the ratio of absorbance at λmax for the irradiated sample compared to the unirradiated sample. As a further measure, a comparison of the sum of the absorbance in the 290-400 nm range was calculated.
The thin films are a good surrogate for testing the stability of a candidate in a sunscreen formulation as they use cosmetic emollients as solvent and are formed at cosmetically relevant concentrations.

Data set [2] in a line: UV/visible absorbance characteristics (λmax, λcrit, ε, E 1%,1 cm). Format: physicochemical.
[3] abbreviates: Table 5, in M-1 cm-1 (unit assumed).
Setting [4] is: Table 1, in M-1 cm-1 (unit assumed).
Where [5] appears, read: Table 2, in M-1 cm-1 (unit assumed).

As to `CC(C)(C)CC(C)(C)N1C=C(C(=O)/C=C/c2ccc(/C=C/C(=O)C3=CN(C(C)(C)CC(C)(C)C)CCC3(C)C)cc2)C(C)(C)CC1`, in data set [1] (Table 5), the “Photostability (%)” value is listed as less than 5%.
With `Cc1cc(N2C=C(C(=O)C(F)(F)F)C(C)(C)CC2)ccc1N1C=C(C(=O)C(F)(F)F)C(C)(C)CC1`, in data set [2] (Table 5), the “E (1%, 1 cm)” value is given as 1170; the λcrit worked out at 369 nm; the λmax came to 347 nm. Further, the ε in data set [2] (setting [3]) came to 58853.
Take `Cc1c(N2C=C(C(=O)C(F)(F)F)C(C)(C)CC2)cccc1N1C=C(C(=O)C(F)(F)F)C(C)(C)CC1`: in data set [2] (Table 5), the “E (1%, 1 cm)” value is on record as 1495; the λcrit turned out to be 346 nm; the λmax stood at 326 nm. This compound registered a ε in data set [2] (setting [3]) of 75074.
As for `Cc1ccc(N2C=C(C(=O)C(F)(F)F)C(C)(C)CC2)cc1N1C=C(C(=O)C(F)(F)F)C(C)(C)CC1`, in data set [2] (Table 5), the “E (1%, 1 cm)” value was found to be 1315; the λcrit came out at 358 nm; the λmax is given as 339 nm. Besides, in data set [2] (setting [3]), the ε is 66020.
As for `COc1ccc(N2C=C(C(=O)C(F)(F)F)C(C)(C)CC2)cc1N1C=C(C(=O)C(F)(F)F)C(C)(C)CC1`, the “Photostability (%)” value in data set [1] (Table 5) came out at 100%. Besides, in data set [2] (Table 5), the “E (1%, 1 cm)” value is recorded as 1094; the λcrit worked out at 364 nm; the λmax turned out to be 340 nm. The same compound yielded a ε in data set [2] (setting [3]) of 56720.
Take `CC1(C)CCN(C(C)(C)C)C=C1C(=O)C(F)F`: in data set [1] (Table 5), the “Photostability (%)” value is recorded as 43%. In data set [2] (Table 5), the “E (1%, 1 cm)” value is on record as 1371; the λcrit was determined as 331 nm; the λmax stood at 313 nm. Moreover, the ε in data set [2] (setting [3]) is 30868.
In the case of `CCCCCCC(=O)C1=CN(c2ccc(N3C=C(C(=O)CCCCCC)C(C)(C)CC3)cc2)CCC1(C)C` [1,1′-(1,4-phenylenebis(4,4-dimethyl-1,4,5,6-tetrahydropyridine-1,3-diyl))bis(heptan-1-one)], in data set [2] (synthesis section), the “UV λmax” value came to 359 nm and the ε came out at 70222 M⁻¹ cm⁻¹.
Turning to `CCCCCCCC(=O)C1=CN(C(C)(C)C)CCC1(C)C` [319, 2], in data set [1], the “% λmax (% of original absorbance remaining)” value is listed as 45%; the “Photostability, % remaining after irradiation” value (from here on “Photostability, % remaining”) is listed as “over 40%”; the “% abs total (% of original absorbance remaining)” value worked out at 47%.
As for `CC1(C)CCN(C(C)(C)C)C=C1C(=O)/C=C/c1ccc(/C=C/C(=O)C2=CN(C(C)(C)C)CCC2(C)C)cc1` [(2E,2′E)-3,3′-(1,4-phenylene)bis(1-(1-(tert-butyl)-4,4-dimethyl-1,4,5,6-tetrahydropyridin-3-yl)prop-2-en-1-one)], in data set [2] (synthesis section), the “UV λmax” value is 386 nm and the ε was found to be 36404 M⁻¹ cm⁻¹.
For the compound `CCC(=O)C1=CN(CC(C)C)CCC1(C)C` [Compound 1], in data set [1], the “% λmax (% of original absorbance remaining)” value amounted to 21%; the “Photostability, % remaining” value is 21%; the “% abs total (% of original absorbance remaining)” value was determined as 24%.
As to `CC(C)CN1C=C(C(=O)c2ccccc2)C(C)(C)CC1` [Compound 11], the “Photostability (%)” value in data set [1] (Table 7, benzoyl derivatives) is reported as 59%. In addition, in data set [1], the “% λmax (% of original absorbance remaining)” value came out at 59%; the “Photostability, % remaining” value is recorded as 59%; the “% abs total (% of original absorbance remaining)” value is on record as 63%.
For `CC(C)CN1C=C(C(=O)C(c2ccccc2)c2ccccc2)C(C)(C)CC1` [Compound 16], in data set [1], the “% λmax (% of original absorbance remaining)” value stood at 35% and the “% abs total (% of original absorbance remaining)” value was 37%.
Taken in the same sequence, the figures for `CCC(=O)C1=CN(c2ccccc2)CCC1(C)C` [Compound 23] were 30% and 31%.
In the case of `Br.CCC(=O)C1=CN(CC(C)C)CCC1(C)C` [Compound 44], in data set [1], the “% λmax (% of original absorbance remaining)” value was 56%; the “Photostability, % remaining” value was determined as 56%; the “% abs total (% of original absorbance remaining)” value is 56%.
For the compound `CC1(C)CCN(C(C)(C)C)C=C1C(=O)c1ccncc1` [Compound 58], in data set [1] (Table 7, benzoyl derivatives), the “Photostability (%)” value stood at 78%.
`CN(C(=O)C1=CN(C(C)(C)C)CCC1(C)C)c1ccccc1` [Compound 70]: in data set [1], the “% λmax (% of original absorbance remaining)” value was 9% and the “% abs total (% of original absorbance remaining)” value stood at 14%.
As for `CC1(C)CCN(C(C)(C)C)C=C1C(=O)c1ccc(Br)cc1` [Compound 76], in data set [1] (Table 7, benzoyl derivatives), the “Photostability (%)” value was 85%.
As for `CN(C)c1ccc(C(=O)C2=CN(C(C)(C)C)CCC2(C)C)cc1` [Compound 86], the “Photostability (%)” value in data set [1] (Table 7, benzoyl derivatives) is recorded as 30%. Also, the “Photostability, % remaining” value in data set [1] worked out at 30%.
With `CC(C)(C)Oc1ccc(C(=O)C2=CN(C(C)(C)C)CCC2(C)C)cc1` [Compound 88], in data set [1] (Table 7, benzoyl derivatives), the “Photostability (%)” value was 38%.
Take `CC1(C)CCN(C(C)(C)C)C=C1C(=O)CC(=O)c1ccccc1` [Compound 94]: in data set [1], the “% λmax (% of original absorbance remaining)” value is recorded as 11%; the “Photostability, % remaining” value is “less than 20%”; the “% abs total (% of original absorbance remaining)” value is 21%. The “Colour change on exposure to irradiation” value in data set [1] (film) is listed as “goes from bright yellow to colourless; also recorded: became perfectly colourless”.
On to `CCCCNc1ccc(C(=O)C2=CN(C(C)(C)C)CCC2(C)C)cc1` [Compound 102], for which the “E (1%, 1 cm)” value in data set [2] (Table 1) was 628.
`CC1(C)C=CN(c2ccccc2)C=C1C(=O)C(F)(F)F` [Compound 105]: in data set [2] (Table 1), the “E (1%, 1 cm)” value came out at 263; the λcrit was determined as 391 nm; the λmax is 384 nm. Moreover, the ε in data set [2] (setting [4]) is reported as 7393.
Taken in the same sequence, the figures for `CC1(C)CCN(c2ccc(Cc3ccc(N4C=C(C(=O)C(F)(F)F)C(C)(C)CC4)cc3)cc2)C=C1C(=O)C(F)(F)F` [Compound 108] were 1051, 363 nm, 341 nm and 60770.
Taken in the same sequence, the figures for `CC1(C)CCN(c2ccc(Oc3ccc(N4C=C(C(=O)C(F)(F)F)C(C)(C)CC4)cc3)cc2)C=C1C(=O)C(F)(F)F` [Compound 111] were 923, 365 nm, 343 nm and 53548.
With `CC1(C)CCN(c2ccc(N3C=C(C(=O)C(F)(F)F)C(C)(C)CC3)cc2)C=C1C(=O)C(F)(F)F` [Compound 116], the “E (1%, 1 cm)” value in data set [2] (Table 1) and in data set [2] (Table 2) was 1120 in each case. Also, the λcrit in data set [2] (Table 1) was found to be 386 nm; in data set [2] (Table 2), 387 nm. Besides, the λmax in data set [2] (Table 1) and in data set [2] (Table 2) was 367 nm each time. For the same compound, the ε in data set [2] (setting [4]) and in data set [2] (setting [5]) was 54658 in each case.
`CC1(C)CCN(c2ccc(N3C=C(C(=O)C(F)(F)F)C(C)(C)CC3)cc2)CC1` [Compound 117]: in data set [2] (Table 1), the “E (1%, 1 cm)” value stood at 657; the λcrit is on record as 382 nm; the λmax is reported as 349 nm. Further, the ε in data set [2] (setting [4]) came out at 25890.
`CCC(=O)C1=CN(c2ccc(Oc3ccc(N4C=C(C(=O)CC)C(C)(C)CC4)cc3)cc2)CCC1(C)C` [Compound 118] showed a ε in data set [2] (setting [4]) of 56063.
For the compound `CC(C)CN1C=C(C(=O)C(C)(C)C)C(C)(C)CC1` [Compound 145], in data set [1], the “% λmax (% of original absorbance remaining)” value is reported as 60% and the “% abs total (% of original absorbance remaining)” value amounted to 60%.
Regarding `CC(C)CN1C=C(C(=O)C(F)(F)F)C(C)(C)CC1` [Compound 146], in data set [1], the “% λmax (% of original absorbance remaining)” value is listed as 89% and the “% abs total (% of original absorbance remaining)” value turned out to be 88%.
As for `CC1(C)CCN(c2ccc(N3C=C(C(=O)C(F)(F)C(F)(F)C(F)(F)F)C(C)(C)CC3)cc2)C=C1C(=O)C(F)(F)C(F)(F)C(F)(F)F` [Compound 158], in data set [2] (Table 1), the “E (1%, 1 cm)” value stood at 750; the λcrit worked out at 388 nm; the λmax stood at 369 nm. The ε in data set [2] (setting [4]) worked out at 51600. Moreover, in data set [2] (Table 2), the “E (1%, 1 cm)” value was 750; the λcrit is listed as 388 nm; the λmax is given as 369 nm. For the same compound, the ε in data set [2] (setting [5]) is on record as 51600.
On to `Cc1ccc(NC(=O)C2=CN(C(C)(C)CC(C)(C)C)CCC2(C)C)cc1NC(=O)C1=CN(C(C)(C)CC(C)(C)C)CCC1(C)C` [Compound 161], for which the “% λmax (% of original absorbance remaining)” value in data set [1] stood at 55%.
With `CC1(C)CCN(C(C)(C)C)C=C1C(=O)c1ccccc1` [Compound 179], in data set [1], the “Photostability, % remaining” value is recorded as 76%.
With `CC1(C)CCN(C(C)(C)C)C=C1C(=O)c1c(F)cccc1F` [Compound 184], in data set [1] (Table 7, benzoyl derivatives), the “Photostability (%)” value is recorded as 90%.
As to `CC1(C)CCN(C(C)(C)C)C=C1C(=O)c1c(F)c(F)c(F)c(F)c1F` [Compound 185], in data set [2] (Table 7, benzoyl derivatives), the λmax was found to be 315 nm.
As for `CCCCC(CC)CN(c1ccc(C(=O)C2=CN(C(C)(C)C)CCC2(C)C)cc1)c1ccc(C(=O)C2=CN(C(C)(C)C)CCC2(C)C)cc1` (stereo not shown) [drawing 95, (((2-ethylhexyl)azanediyl)bis(4,1-phenylene))bis((1-(tert-butyl)-4,4-dimethyl-1,4,5,6-tetrahydropyridin-3-yl)methanone)], in data set [2] (synthesis section), the “UV λmax” value came to 316 nm and the ε was 41598 M⁻¹ cm⁻¹.
With `CC1(C)CCN(C(C)(C)C)C=C1C(=O)C(F)(F)C(F)(F)C(F)(F)C(=O)C1=CN(C(C)(C)C)CCC1(C)C` [drawing 123], in data set [2] (Table 5), the “E (1%, 1 cm)” value stood at 1177; the λcrit is 337 nm; the λmax is on record as 317 nm. This compound displayed a ε in data set [2] (setting [3]) of 63346.
